In US20250059205A1, “Heterocyclic Compounds and Methods of Use” (AMGEN INC., priority 2021, published 2025):

Legend:
[1] = molecular target: His-tagged KRAS G12D protein (Homo sapiens, UniProt P01116, G12D); assay: KRAS G12D TR-FRET Assay; assay type: binding
[2] = molecular target: GDP-bound KRAS protein (aa 1-169), containing both G12D and C118A amino acid substitutions (Homo sapiens, UniProt P01116, C118A/G12D); assay: KRAS G12D Coupled Nucleotide Exchange Assay; assay type: biochemical; conditions: 2 h compound pre-incubation
Experimental: Following compound pre-incubation, purified SOS protein (aa 564-1049) and GTP (Roche 10106399001) were added to the assay wells and incubated for an additional 30 min. […] The assay plates were then read on a PerkinElmer EnVision Multilabel Reader, using AlphaScreen® technology, and data were analyzed using a 4-parameter logistic model to calculate IC50 values.

[3] = test system: Phosphorylation of ERK1/2 in A-427 cells; assay: Phospho-ERK1/2 MSD Assay (A-427 cells); assay type: cell-based; conditions: Homo sapiens, A-427, 2 h, 2 h treatment, read-out: p-ERK (A427 cells) IC50
In short: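 ERK1/2 phosphorylation measured by Meso Scale whole-cell lysate assay after A-427 cells were exposed to a titration of compound for 2 h at 37 °C.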

[4] = test system: Phosphorylation of ERK1/2 in AsPC-1 cells; assay: Phospho-ERK1/2 MSD Assay (AsPC-1 cells); assay type: cell-based; conditions: Homo sapiens, ASPC1, 2 h, 2 hours treatment, read-out: p-ERK (AsPC-1 cells) IC50
In short: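 Read-out: MSD electrochemiluminescent detection of phosphorylated ERK1/2 in whole-cell lysates, fitted to a 4-parameter logistic curve for IC50. Prior to lysis, AsPC-1 cells (25,000 per well) received a 2 h compound dose-response at 37 °C.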

Chain of GDP-bound KRAS protein (aa 1-169), containing both G12D and C118A amino acid substitutions (P01116 1-169 isoform P01116-2 G12D/C118A): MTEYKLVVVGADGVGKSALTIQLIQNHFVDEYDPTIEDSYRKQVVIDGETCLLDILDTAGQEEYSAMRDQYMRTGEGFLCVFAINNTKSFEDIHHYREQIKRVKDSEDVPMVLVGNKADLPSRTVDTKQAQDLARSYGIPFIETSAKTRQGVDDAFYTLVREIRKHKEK
Chain of His-tagged KRAS G12D protein (P01116 1-188 isoform P01116-2 G12D): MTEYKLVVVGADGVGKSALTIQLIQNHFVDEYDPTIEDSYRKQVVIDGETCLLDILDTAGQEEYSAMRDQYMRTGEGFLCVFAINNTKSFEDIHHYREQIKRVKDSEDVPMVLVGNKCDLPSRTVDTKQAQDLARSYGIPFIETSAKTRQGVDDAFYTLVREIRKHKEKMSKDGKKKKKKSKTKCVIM

CCc1c(F)ccc2cc(O)cc(-c3ccc4c(N5C[C@H]6CC[C@@H](C5)N6)nc(OCC5(O)CCC5)nc4c3F)c12 [Example 135, 4-(4-((1R,5S)-3,8-diazabicyclo[3.2.1]octan-3-yl)-8-fluoro-2-((1-hydroxycyclobutyl)methoxy)quinazolin-7-yl)-5-ethyl-6-fluoronaphthalen-2-ol]
IC50 [1]: 10 nM
Avg 2 h Coupled Exchange IC50 [2]: 9 nM
IC50 [3]: 2120 nM
IC50 [4]: 2270 nM

CCc1cccc2cccc(-c3c(Cl)cc4c(N5C[C@H]6CC[C@@H](C5)N6)nc(OC[C@@]56CCCN5C[C@H](F)C6)nc4c3F)c12 [Example 71, 4-((1R,5S)-3,8-diazabicyclo[3.2. 1]octan-3-yl)-6-chloro-7-(8-ethylnaphthalen-1-yl)-8-fluoro-2-(((2R,7aS)-2-fluorotetrahydro-1H-pyrrolizin-7a(5H)-yl)methoxy) quinazoline]
IC50 [1]: 38 nM
Avg 2 h Coupled Exchange IC50 [2]: 50 nM
IC50 [3]: 4790 nM
IC50 [4]: 3360 nM

CCc1c(F)ccc2cc(O)cc(-c3ccc4c(N5C[C@H]6CC[C@@H](C5)N6)cc(OC[C@@]56CCCN5C[C@H](F)C6)nc4c3F)c12 [Example 211, 4-(4-((1R,5S)-3,8-Diazabicyclo[3.2.1]octan-3-yl)-8-fluoro-2-(((2R,7aS)-2-fluorotetrahydro-1H-pyrrolizin-7a(5H)-yl)methoxy)quinolin-7-yl)-5-ethyl-6-fluoronaphthalen-2-ol]
IC50 [1]: 18 nM
Avg 2 h Coupled Exchange IC50 [2]: 29 nM
IC50 [3]: 6290 nM
IC50 [4]: 8750 nM

CCc1cccc2cc(O)cc(-c3ccc4c(N5CCC6CCC(C5)N6)nc(OC[C@@]56CCCN5C[C@H](F)C6)nc4c3F)c12 (stereo partly drawn) [Example 154, 4-(4-(3,9-diazabicyclo[4.2.1]nonan-3-yl)-8-fluoro-2-(((2R,7aS)-2-fluorotetrahydro-1H-pyrrolizin-7a(5H)-yl)methoxy)quinazolin-7-yl)-5-ethylnaphthalen-2-ol]
IC50 [1]: 13 nM
Avg 2 h Coupled Exchange IC50 [2]: 12 nM
IC50 [3]: 879 nM
IC50 [4]: 1030 nM

Cc1cccc2cccc(-c3c(F)cc4c(N5[C@@H]6CC[C@H]5CNC6)nc(OC[C@@]56CCCN5C[C@H](F)C6)nc4c3F)c12 [Example 23, 4-((1R,5S)-3,8-diazabicyclo[3.2. 1]octan-8-yl)-6,8-difluoro-2-(((2R,7aS)-2-fluorotetrahydro-1H-pyrrolizin-7a(5H)-yl)methoxy)-7-(8-methylnaphthalen-1-yl)quinazoline]
IC50 [1]: 44 nM
Avg 2 h Coupled Exchange IC50 [2]: 19 nM
IC50 [3]: 10300 nM
IC50 [4]: 2600 nM

Oc1cc(-c2c(F)cc3c(N4C[C@H]5CC[C@@H](C4)N5)nc(OC[C@@]45CCCN4C[C@H](F)C5)nc3c2F)c2c(Cl)cccc2c1 [Example 70, 4-(4-((1R,5S)-3,8-diazabicyclo[3.2. 1]octan-3-yl)-6,8-difluoro-2-(((2R,7aS)-2-fluorotetrahydro-1H-pyrrolizin-7a(5H)-yl)methoxy)quinazolin-7-yl)-5-chloronaphthalen-2-ol]
IC50 [1]: 3 nM
Avg 2 h Coupled Exchange IC50 [2]: 7 nM
IC50 [3]: 12 nM
IC50 [4]: 49 nM

CCc1c(F)ccc2cc(O)cc(-c3c(F)cc4c(N5C[C@H]6CC[C@@H](C5)N6)nc(OC[C@@H]5C[C@@H](F)CN5C)nc4c3F)c12 [Example 89, 4-(4-((1R,5S)-3,8-diazabicyclo[3.2. 1]octan-3-yl)-6,8-difluoro-2-(((2S,4R)-4-fluoro-1-methylpyrrolidin-2-yl)methoxy)quinazolin-7-yl)-5-ethyl-6-fluoronaphthalen-2-ol]
IC50 [1]: 4 nM
Avg 2 h Coupled Exchange IC50 [2]: 4 nM
IC50 [3]: 80 nM
IC50 [4]: 137 nM

Cc1ccc2[nH]nc(N)c2c1-c1ccc2c(N3C[C@H]4CC[C@@H](C3)N4)nc(OC[C@@]34CCCN3C[C@H](F)C4)nc2c1F [Example 226, 4-(4-((1R,5S)-3,8-diazabicyclo[3.2.1]octan-3-yl)-8-fluoro-2-(((2R,7aS)-2-fluorotetrahydro-1H-pyrrolizin-7a(5H)-yl)methoxy)quinazolin-7-yl)-5-methyl-1H-indazol-3-amine]
IC50 [1]: 44 nM
Avg 2 h Coupled Exchange IC50 [2]: 7 nM
IC50 [3]: > 10000 nM
IC50 [4]: > 10000 nM

CCc1c(F)ccc2cc(O)cc(-c3ccc4c(N5CC6CCC(C5)N6)nc(OC[C@@]56CCCN5C[C@H](F)C6)nc4c3)c12 [Example 111]
IC50 [1]: 2 nM
Avg 2 h Coupled Exchange IC50 [2]: 1 nM
IC50 [3]: 28 nM
IC50 [4]: 51 nM

Cc1cc2[nH]ncc2c(-c2ccc3c(N4[C@@H]5CC[C@H]4CNC5)nc(OC[C@@]45CCCN4C[C@H](F)C5)nc3c2)c1Cl [Example 37, 4-((1R,5S)-3,8-diazabicyclo[3.2. 1]octan-8-yl)-7-(5-chloro-6-methyl-1H-indazol-4-yl)-2-(((2R,7aS)-2-fluorotetrahydro-1H-pyrrolizin-7a(5H)-yl)methoxy) quinazoline]
IC50 [1]: 193 nM
Avg 2 h Coupled Exchange IC50 [2]: 73 nM
IC50 [3]: > 10000 nM
IC50 [4]: 6700 nM

CCc1cccc2cccc(-c3ccc4c(N5C[C@H]6CC[C@@H](C5)N6)nc(OC[C@@]56CCCN5C[C@H](F)C6)nc4c3C)c12 [Example 59, 4-((1R,5S)-3,8-diazabicyclo[3.2. 1]octan-3-yl)-7-(8-ethylnaphthalen-1-yl)-2-(((2R,7aS)-2-fluorotetrahydro-1H-pyrrolizin-7a(5H)-yl)methoxy)-8-methylquinazoline]
IC50 [1]: 8 nM
Avg 2 h Coupled Exchange IC50 [2]: 11 nM
IC50 [3]: 3380 nM
IC50 [4]: 4160 nM

CCc1c(F)ccc2cc(O)cc(-c3c(F)cc4c(N5C[C@H]6CCC[C@@H](C5)N6)nc(OC[C@@]56CCCN5C[C@H](F)C6)nc4c3F)c12 [Example 119, 4-(4-((1R,5S)-3,9-diazabicyclo[3.3.1]nonan-3-yl)-6,8-difluoro-2-(((2R,7aS)-2-fluorotetrahydro-1H-pyrrolizin-7a(5H)-yl)methoxy)quinazolin-7-yl)-5-ethyl-6-fluoronaphthalen-2-ol]
IC50 [1]: 5 nM
Avg 2 h Coupled Exchange IC50 [2]: 4 nM
IC50 [3]: 156 nM
IC50 [4]: 276 nM

Oc1cc(-c2c(F)cc3c(N4C[C@@H]5CC[C@H]4CN5)nc(OCC45CCCN4C[C@H](F)C5)nc3c2F)c2c(F)c(F)ccc2c1 (atropisomer, axis not shown; (M)) [Example 233, (M)-4-(4-((1S,4S)-2,5-Diazabicyclo[2.2.2]octan-2-yl)-6,8-difluoro-2-(((2R,7aS)-2-fluorotetrahydro-1H-pyrrolizin-7a(5H)-yl)methoxy)quinazolin-7-yl)-5,6-difluoronaphthalen-2-ol]
IC50 [1]: 1 nM
Avg 2 h Coupled Exchange IC50 [2]: 1 nM
IC50 [3]: 5 nM
IC50 [4]: 27 nM

Cc1ccc2cnn(C)c2c1-c1c(Cl)cc2c(N3C[C@H]4CC[C@@H](C3)N4)nc(OC[C@@]34CCCN3C[C@H](F)C4)nc2c1F [Example 76, 4-((1R,5S)-3,8-diazabicyclo[3.2. 1]octan-3-yl)-6-chloro-7-(1,6-dimethyl-1H-indazol-7-yl)-8-fluoro-2-(((2R,7aS)-2-fluorotetrahydro-1H-pyrrolizin-7a(5H)-yl)methoxy) quinazoline]
IC50 [1]: 10 nM
Avg 2 h Coupled Exchange IC50 [2]: 8 nM
IC50 [3]: 191 nM
IC50 [4]: 674 nM

CCC(O)(CC)COc1nc(N2C[C@H]3CC[C@@H](C2)N3)c2cc(F)c(-c3cc(O)cc4ccc(F)c(F)c34)c(F)c2n1 [Example 124, 4-(4-((1R,5S)-3,8-diazabicyclo[3.2.1]octan-3-yl)-2-(2-ethyl-2-hydroxybutoxy)-6,8-difluoroquinazolin-7-yl)-5,6-difluoronaphthalen-2-ol]
IC50 [1]: 34 nM
Avg 2 h Coupled Exchange IC50 [2]: 19 nM
IC50 [3]: 4320 nM
IC50 [4]: 2410 nM

Cc1ccc2[nH]nc(C)c2c1-c1c(F)cc2c(N3C[C@H]4CC[C@@H](C3)N4)nc(OC[C@@]34CCCN3C[C@H](F)C4)nc2c1F [Example 208, 4-((1R,5S)-3,8-diazabicyclo[3.2.1]octan-3-yl)-7-(3,5-dimethyl-1H-indazol-4-yl)-6,8-difluoro-2-(((2R,7aS)-2-fluorotetrahydro-1H-pyrrolizin-7a(5H)-yl)methoxy) quinazoline]
IC50 [1]: 18 nM
Avg 2 h Coupled Exchange IC50 [2]: 8 nM
IC50 [3]: 484 nM
IC50 [4]: 843 nM

Oc1ccc(Cl)c(-c2ccc3c(N4C[C@H]5CC[C@@H](C4)N5)nc(OC[C@@]45CCCN4C[C@H](F)C5)nc3c2)c1F [Example 36, 3-(4-((1R,5S)-3,8-diazabicyclo[3.2. 1]octan-3-yl)-2-(((2R,7aS)-2-fluorotetrahydro-1H-pyrrolizin-7a(5H)-yl)methoxy)quinazolin-7-yl)-4-chloro-2-fluorophenol]
IC50 [1]: 483 nM
Avg 2 h Coupled Exchange IC50 [2]: 82 nM
IC50 [3]: > 10000 nM
IC50 [4]: > 10000 nM

C#Cc1c(F)ccc2cc(O)cc(-c3c(F)cc4c(N5C[C@@H]6CC[C@H]5CN6)nc(OC[C@@]56CCCN5C[C@H](F)C6)nc4c3F)c12 [Example 188, 4-(4-((15,4S)-2,5-diazabicyclo[2.2.2]octan-2-yl)-6,8-difluoro-2-(((2R,7aS)-2-fluorotetrahydro-1H-pyrrolizin-7a(5H)-yl)methoxy)quinazolin-7-yl)-5-ethynyl-6-fluoronaphthalen-2-ol]
IC50 [1]: 2 nM
Avg 2 h Coupled Exchange IC50 [2]: 2 nM
IC50 [3]: 2 nM
IC50 [4]: 16 nM
